Our source for the chromatographic logP and log p values is US8466176B2 (priority 2008, dated 2013).

The structures appear in SMILES notation.

One data set in a line: logP(HCOOH) reported with HPLC/MS. Conditions: HCOOH (formic acid), logP(HCOOH), HPLC/MS.
For orientation: chromatographic logP means a lipophilicity value derived from retention on a column. A high value points to a more lipophilic compound. `Cc1cccc(C2OCCO2)[n+]1[O-]` [2-(1,3-dioxolan-2-yl)-6-methylpyridine 1-oxide] yielded a chromatographic logP of 0.45.
Same read-out and setting: the figure for `CN(C)c1cccc(C(=NOCc2cccc(N3C(=O)c4ccccc4C3=O)n2)c2nnnn2C)c1` [2-(6-{[({[3-(dimethylamino)phenyl](1-methyl-1H-tetrazol-5-yl)methylene}amino)oxy]methyl}pyridin-2-yl)-1H-isoindole-1,3(2H)-dione] is 3.17; for `CCCCCCN(C=O)c1cccc(C)n1` [N-hexyl-N-(6-methylpyridin-2-yl)formamide] it is 3.46; for `CCCCSC(=O)Nc1cccc(CON=C(c2ccccc2)c2nnnn2C)n1` [S-butyl {6-[({[(1-methyl-1H-tetrazol-5-yl)(phenyl)methylene]amino}oxy)methyl]pyridin-2-yl}carbamothioate] it is 4.25.
Compound `CCCCCON(C(=O)OC(C)(C)C)c1cccc(CON=C(c2ccccc2)c2nnnn2C)n1` [Example 268, tert-butyl {6-[({[(1-methyl-1H-tetrazol-5-yl)(phenyl)methylene]amino}oxy)methyl]pyridin-2-yl}(pentyloxy)carbamate] returned a chromatographic logP of 5.25.
On the same count and under the same terms, the figure for `Cc1cccc(C2OCCO2)n1` [2-(1,3-dioxolan-2-yl)-6-methylpyridine] is 1.21; for `CSc1cccc(C(=NOCc2cccc(N(CCC3CCCCC3)C(=O)OC(C)(C)C)n2)c2nnnn2C)c1` [tert-butyl (2-cyclohexylethyl)(6-{[({[3-(methylsulfanyl)phenyl](1-methyl-1H-tetrazol-5-yl)methylene}-amino)oxy]methyl}pyridin-2-yl)carbamate] it is 6.83; for `OCc1cccc(C2OCCO2)n1` [[6-(1,3-dioxolan-2-yl)pyridin-2-yl]methanol] it is 0.54.

The data set is the same for the next values; noted with them: HPLC, logP(HCOOH), HPLC/MS.
`Cc1sc(Br)nc1CON=C(c1ccccc1)c1nnnn1C` [Example 175, N-[(2-bromo-5-methyl-1,3-thiazol-4-yl)methoxy]-1-(1-methyl-1H-tetrazol-5-yl)-1-phenylmethanimine] registered a chromatographic logP of 3.37.

The data set is the same for the next values; noted with them: method [a]: HPLC on reversed phase columns, pH 2.3 with 0.1% phosphoric acid and acetonitrile as eluent.
`C#Cc1nc(CON=C(c2ccccc2)c2nnnn2C)cs1` [Example 139]: the log p is 2.77^[a].
Regarding `Cn1nnnc1C(=NOCc1cccc(NCC2CCC2)n1)c1ccccc1` [Example 178], the log p is 1.98^[a].
Regarding `Cn1nnnc1C(=NOCc1cccc(N(CC2CC2)C(=O)OC(C)(C)C)n1)c1ccccc1` [Example 142], the log p is 4.7^[a].
With `Cn1nnnc1C(=NOCc1cccc(C(O)CCc2ccccc2)n1)c1ccccc1` (stereo not shown) [Example 176], the log p was 3.35^[a].

Still in this data set, the particulars now being: method [b]: LC-MS at pH 2.7, 0.1% formic acid in water and acetonitrile, linear gradient 10% to 95% acetonitrile.
In the case of `CC(C)c1nc(CON=C(c2ccccc2)c2nnnn2C)cs1` [Example 78], the log p was 3.39^[b].
As to `Cc1nnnn1C(=NOCc1cccc(NC(=S)NC2CCCCC2)n1)c1ccccc1` [Example 8], the log p was 3.81^[b].
Consider `CCN(C)C=Nc1cccc(CON=C(c2ccccc2)n2nnnc2C)n1` [Example 3], for which the log p is 1.43^[b].
On to `CCCCCN(C)C(=O)c1cccc(CON=C(c2ccccc2)c2nnnn2C)n1` [Example 85], for which the log p was 3.29^[b].
Take `Cc1nnnn1C(=NOCc1cccc(NC(=S)NCCc2ccccc2)n1)c1ccccc1` [Example 7]: the log p is 3.67^[b].
Still for that read-out and setting: the figure for `C=CCNC(=S)Nc1cccc(CON=C(c2ccccc2)n2nnnc2C)n1` [Example 11] is 3.09^[b].
As for `CCCCCOC(=O)NCc1cccc(CON=C(c2ccccc2)c2nnnn2C)n1` [Example 60], the log p was 3.48^[b].
On the same count and under the same terms, the figure for `Cn1nnnc1C(=NOCc1nc(C#CCCCc2ccccc2)ccc1F)c1ccccc1` [Example 104] is 4.84^[b]; for `Cn1nnnc1C(=NOCc1nc(C#CCCCCl)ccc1F)c1ccccc1` [Example 105] it is 3.87^[b].
Same read-out and setting: as for `CN(C)C(=O)c1cccc(CON=C(c2ccccc2)c2nnnn2C)n1` [Example 77], the figure is 2.04^[b]; as for `Cn1nnnc1C(=NOCc1cccc(C#CC2=CCCCC2)n1)c1ccccc1` [Example 124], 4.34^[b]; as for `Cn1nnnc1C(=NOCc1cccc(C#CC2CC2)n1)c1ccccc1` [Example 109], 3.46^[b].
Still for that read-out and setting: as for `CC(C)CCC#Cc1ccc(F)c(CON=C(c2ccccc2)c2nnnn2C)n1` [Example 101], the figure is 3.13^[b]; as for `Cn1nnnc1C(=NOCc1nc(C#CC2CCCCC2)sc1Cl)c1ccccc1` [Example 120], 5.75^[b].

Staying with this data set, now noted: method [b]: LC-MS at pH 2.7 with 0.1% formic acid in water and acetonitrile (0.1% formic acid), linear gradient 10% to 95% acetonitrile.
As for `Cn1nnnc1C(=NOCc1cccc(NOCCc2ccccc2)n1)c1ccccc1` [Example 287], the log p is 3.69^[b].
Turning to `CSc1cccc(C(=NOCc2cccc(NCC3CCCCC3)n2)c2nnnn2C)c1` [Example 292], the log p was 3.02^[b].
With `Cn1nnnc1C(=NOCc1cccc(NC(=O)SC(C)(C)C)n1)c1ccccc1` [Example 309], the log p was 4.19^[b].
Still for that read-out and setting: as for `CSc1cccc(C(=NOCc2csc(C#CC3CC3)n2)c2nnnn2C)c1` [Example 303], the figure is 3.99^[b]; as for `CCCCCCNc1cccc(CON=C(c2cccc(SC)c2)c2nnnn2C)n1` [Example 296], 2.78^[b]; as for `Cn1nnnc1C(=NOCc1cccc(NCCC2CCCCC2)n1)c1cccc(F)c1` [Example 291], 3.27^[b].

Staying with this data set, now noted: method [b]: LC-MS, pH 2.7 with 0.1% formic acid in water and acetonitrile (0.1% formic acid), linear gradient 10% to 95% acetonitrile.
For the compound `Cn1nnnc1C(=NOCc1cccc(C#Cc2ccc(Oc3ccccc3)cc2)n1)c1ccccc1` [Example 234], the log p was 5.08^[b].
Turning to `CCCCCCC#Cc1cccc(CON=C(c2ccccc2)c2nnnn2C)n1` [Example 235], the log p is 5.11^[b].
Same read-out and setting: the figure for `Cn1nnnc1C(=NOCc1csc(C#Cc2cccc(OC(F)(F)F)c2)n1)c1ccccc1` [Example 265] is 4.81^[b].
As to `CCCOc1ccc(C#Cc2cccc(CON=C(c3ccccc3)c3nnnn3C)n2)cc1` [Example 246], the log p was 4.86^[b].
On to `Cc1sc(C#CCC2CCCCC2)nc1CON=C(c1ccccc1)c1nnnn1C` [Example 184], for which the log p was 5.62^[b].
As to `Cn1nnnc1C(=NOCc1cccc(C#Cc2ccc(N3CCCCC3)cc2)n1)c1ccccc1` [Example 232], the log p was 4.81^[b].
As to `Cc1nnnn1C(=NOCc1csc(C#CCCCc2ccccc2)n1)c1ccccc1` [Example 166], the log p is 4.84^[b].
With `Cn1nnnc1C(=NOCc1csc(C#Cc2ccccc2F)n1)c1ccccc1` [Example 260], the log p was 4.15^[b].
`Cn1nnnc1C(=NOCc1cccc(C#Cc2cccc(F)c2)n1)c1ccccc1` [Example 248]: the log p is 4.16^[b].
Same read-out and setting: as for `CCCCC#Cc1nc(CON=C(c2cccc(F)c2)c2nnnn2C)cs1` [Example 149], the figure is 4.51^[b].
For the compound `Cn1nnnc1C(=NOCc1csc(C#Cc2cccc(C#N)c2)n1)c1ccccc1` [Example 259], the log p was 3.76^[b].
Regarding `Cn1nnnc1C(=NOCc1cccc(C#CCOCc2ccccc2)n1)c1ccccc1` [Example 255], the log p was 3.96^[b].
Turning to `CCSCC#Cc1nc(CON=C(c2ccccc2)c2nnnn2C)cs1` [Example 199], the log p is 3.78^[b].
On the same count and under the same terms, as for `Cn1nnnc1C(=NOCc1cccc(C#Cc2ccc(OC(F)(F)F)cc2)n1)c1ccccc1` [Example 220], the figure is 4.75^[b].
Same read-out and setting: the figure for `COc1cccc(C#Cc2cccc(CON=C(c3ccccc3)c3nnnn3C)n2)c1` [Example 221] is 4.09^[b].
Still for that read-out and setting: the figure for `Cc1sc(C#CCC2CCCC2)nc1CON=C(c1ccccc1)c1nnnn1C` [Example 185] is 5.2^[b].
With `Cn1nnnc1C(=NOCc1cccc(C#CCC2CCCC2)n1)c1ccccc1` [Example 236], the log p is 4.78^[b].
On the same count and under the same terms, the figure for `CCCCCC#Cc1nc(CON=C(c2ccccc2)n2nnnc2C)cs1` [Example 167] is 4.92^[b]; for `Cn1nnnc1C(=NOCc1cccc(C#Cc2ccc(C#N)cc2)n1)c1ccccc1` [Example 224] it is 3.69^[b]; for `Cn1nnnc1C(=NOCc1cccc(C#Cc2cc(F)cc(F)c2)n1)c1ccccc1` [Example 233] it is 4.31^[b].
With `Cn1nnnc1C(=NOCc1csc(C#CCCc2ccccc2)n1)c1cccc(F)c1` [Example 156], the log p is 4.49^[b].
As to `Cn1nnnc1C(=NOCc1cccc(C#Cc2ccc(C(C)(C)C)cc2)n1)c1ccccc1` [Example 245], the log p was 5.44^[b].
Still for that read-out and setting: as for `Cn1nnnc1C(=NOCc1csc(C#Cc2ccc(C#N)cc2)n1)c1ccccc1` [Example 191], the figure is 3.76^[b].
For `Cn1nnnc1C(=NOCc1cccc(C#Cc2ccccc2C(F)(F)F)n1)c1ccccc1` [Example 219], the log p was 4.44^[b].
On the same count and under the same terms, as for `CCCCC#Cc1nc(CON=C(c2ccccc2)c2nnnn2C)c(C)s1` [Example 183], the figure is 3.37^[b]; as for `Cn1nnnc1C(=NOCc1cccc(C#Cc2cccc(OC(F)(F)F)c2)n1)c1ccccc1` [Example 249], 4.75^[b].
On the same count and under the same terms, as for `Cn1nnnc1C(=NOCc1csc(C#CC2CC2)n1)c1cccc(F)c1` [Example 148], the figure is 3.71^[b].

The same data set, now with this note: method [c]: LC-MS, pH 7.8 with 0.001 molar ammonium hydrogen carbonate solution in water, linear gradient 10% to 95% acetonitrile.
In the case of `Cn1nnnc1C(=NOCc1cccc(C2OCC(COCc3ccccc3)O2)n1)c1ccccc1` (stereo not shown) [Example 173], the log p was 3.89^[c].

Still in this data set, the particulars now being: reversed phase HPLC column, pH 2.7, log p, method [b]: LC-MS at pH 2.7 with 0.1% formic acid in water and acetonitrile (0.1% formic acid), linear gradient 10% to 95% acetonitrile.
In turn, `CCCCCON(C(=O)OC(C)(C)C)c1cccc(CON=C(c2ccccc2)c2nnnn2C)n1` [Example 268, tert-butyl {6-[({[(1-methyl-1H-tetrazol-5-yl)(phenyl)methylene]amino}oxy)methyl]pyridin-2-yl}(pentyloxy)carbamate] registered a chromatographic logP of 5.25.

The data set is the same for the next values; noted with them: reversed phase HPLC column, pH 2.7, log p, method [b]: LC-MS, pH 2.7 with 0.1% formic acid in water and acetonitrile (0.1% formic acid), linear gradient 10% to 95% acetonitrile.
In turn, `Cc1sc(C#CC2CC2)nc1CON=C(c1ccccc1)c1nnnn1C` [Example 181] returned a chromatographic logP of 3.83.
The same measure, in the same setting: the figure for `Cc1sc(Br)nc1CON=C(c1ccccc1)c1nnnn1C` [Example 175, N-[(2-bromo-5-methyl-1,3-thiazol-4-yl)methoxy]-1-(1-methyl-1H-tetrazol-5-yl)-1-phenylmethanimine] is 3.37.
